Target: T1, ALAS2 (recombinant erythroid-specific 5-aminolevulinate synthase; hsALAS2 in transgenic MEL cells) (Homo sapiens, UniProt P22557)
T1 sequence (P22557 50-587): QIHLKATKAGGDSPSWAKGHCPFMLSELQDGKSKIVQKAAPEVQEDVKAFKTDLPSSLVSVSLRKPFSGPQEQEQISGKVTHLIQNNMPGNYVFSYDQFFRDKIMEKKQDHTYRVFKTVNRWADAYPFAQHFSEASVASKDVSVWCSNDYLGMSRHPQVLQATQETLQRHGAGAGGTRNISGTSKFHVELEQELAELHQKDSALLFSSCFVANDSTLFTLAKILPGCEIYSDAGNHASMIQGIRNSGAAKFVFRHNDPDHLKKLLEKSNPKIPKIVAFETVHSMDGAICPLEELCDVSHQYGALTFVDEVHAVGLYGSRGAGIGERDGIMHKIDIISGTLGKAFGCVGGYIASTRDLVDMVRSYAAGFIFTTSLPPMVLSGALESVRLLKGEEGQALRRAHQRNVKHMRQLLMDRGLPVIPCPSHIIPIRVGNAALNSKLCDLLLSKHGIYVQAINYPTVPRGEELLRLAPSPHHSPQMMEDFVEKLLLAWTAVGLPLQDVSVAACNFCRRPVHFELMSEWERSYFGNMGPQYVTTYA
Experiment: discontinuous colorimetric assay of ALA
Format: biochemical

Ki: 100 ± 20 µM
SMILES: C=C(CC(=O)SCCNC(=O)CCNC(=O)[C@H](O)C(C)(C)COP(=O)(O)OP(=O)(O)OC[C@H]1O[C@@H](n2cnc3c(N)ncnc32)[C@H](O)[C@@H]1OP(=O)(O)O)C(=O)O [itaconyl-CoA]

From publication PMC9153040 (Blood Advances, 2021)
